Assay results taken from a melting point compilation (Tetko et al.).

SMILES	melting point
O=C(O)c1ccccc1C1c2ccc(O)cc2Oc2cc(O)ccc21	126 °C
CCCCCCCCCC[C@H](O)CO	69 to 72 °C
CCN(CC)CC(=O)OCC(=O)C1(O)CCC2C3CCC4=CC(=O)CCC4(C)C3C(O)CC21C (stereo not drawn)	162 °C
CCSC(=O)N(CC)C1CCCCC1	11.5 °C
Cc1ccc(C(c2ccc(C)o2)c2cc(Br)ccc2O)o1	97 °C
CC1=CCCC(C)(C)C1/C=C/C(C)=C/C=C/C(C)=C/C=C/C=C(C)/C=C/C=C(C)/C=C/C1=C(C)CCCC1(C)C (stereo not drawn)	188 °C
Cc1nnsc1C(=O)O	185 °C
CSc1cc(-c2ccc3ccccc3c2)c2c(=O)n(-c3ccccc3)n(C)c2c1	179 °C
CCCCCCCCCCCCCC(=O)OC(=O)CCCCCCCCCCCCC	53.4 °C
CCc1oc2ccccc2c1C(=O)c1cc(I)c(O)c(I)c1	167 °C
CC12CCC(C(=CC(=O)O)C1=O)C2(C)C (stereo not drawn)	106 °C
[O-][P+](c1ccccc1)(c1ccccc1)C1C2=C(CCCC2)OC2=C1CCCC2	157 °C
O=C(Nc1ccccc1)C1CCCC/C1=C\Cc1ccccc1 (stereo not drawn)	99 to 100 °C
O=C(Oc1ccccc1)c1cc2ccccc2cc1O	128 to 133 °C
S=c1sc2ccccc2n1CSc1nc2ccccc2s1	211 °C
O=C(O)C[C@@H](NC(=O)OCC1c2ccccc2-c2ccccc21)c1ccc(Br)cc1	192 °C
CC(=O)n1c(C)cc2cc3c(cc21)=NC(C)C=3 (stereo not drawn)	279 °C
COc1ccc(OC)c(C(C)=O)c1O	49 to 51 °C
C#CC1(O)CCC2C3CCC4=Cc5oncc5CC4(C)C3CCC21C (stereo not drawn)	235 °C
Nc1nonc1N	178 to 183 °C

SMILES	melting point
CC(=O)OC1CCCCC1	-65 °C
CC(=O)OC1C(C2COC(C)(C)O2)OC2OC(C)(C)OC21 (stereo not drawn)	60 to 62 °C
O=c1[nH]c(=O)n(C2CCCO2)cc1F (stereo not drawn)	172 °C
CCCCCCCCCCCCCCCCCCc1ccccc1	29 °C
CCN(CC)CCSC(=O)N(c1ccccc1)c1ccccc1	48 °C
O=C(CCc1ccc(O)cc1)c1c(O)cc(O)cc1O	260 to 262 °C
COc1ccc(C=C(Oc2ccc(Cl)cc2)c2nc3ccccc3s2)cc1	137 to 139 °C
O=C(CNc1ccc(NCC(=O)c2ccccc2)cc1)c1ccccc1	151 °C
O=C(O)C(F)(F)C(F)(F)C(F)(F)C(F)(F)C(F)(C(F)(F)F)C(F)(F)F	13 °C
CC(C)(C)OC(=O)N1CC[C@H]1C(=O)O	105 to 110 °C
CCOC(=O)c1c(NC(=O)C(Cl)Cl)sc2c1CCCC2	120 to 122 °C
CON(C)C(=O)Nc1ccc(Br)c(Cl)c1	96 °C
Cc1c(C)c2c(c(C)c1O)CCC(C)(COc1ccc(CC3SC(=O)NC3=O)cc1)O2 (stereo not drawn)	185 °C
CC(=O)OCC1OC(OC2OC=CC3C(OC(=O)c4ccc(OC(C)=O)cc4)C4OC4(COC(C)=O)C23)C(OC(C)=O)C(OC(C)=O)C1OC(C)=O (stereo not drawn)	135 °C
CC1(C)CC(=O)c2cc(-c3ccccc3)n(-c3ccc(F)cc3)c2C1	208 to 210 °C
CCC1(CC)C(=O)C=CNC1=O	90.7 °C
CCCCOCCOC(C)=O	-63 °C
CN(CC(=O)O)C(=O)OC(C)(C)C	91 °C
OCC1OC(O)C(O)C(O)C1O (stereo not drawn)	170 °C
O=C1CCN(C(=O)CCl)N1	146 °C

SMILES	melting point
COC1(OC)c2ccccc2C(O)(c2ccccc2)c2ccccc21	189 °C
CCOC(=O)C(Cl)=Cc1cc(N2C(=O)C3=C(CCCC3)C2=O)ccc1Cl	112 °C
CN1CCN(Cc2ccccc2I)CC1	37 to 38 °C
Cc1nc(/C(C#N)=N/Nc2ccc(Cl)cc2)sc1/N=N/c1ccccc1	225 °C
O=C(O)[C@@H]1CCCC[C@H]1C(=O)O (relative stereo)	220 °C
O=S1(=O)CC(Br)C(Br)C1 (stereo not drawn)	143 °C
O=C1c2ccccc2N(C(=O)CN2CCOCC2)CN1c1ccccc1	136 °C
CCSC(SCC)C(O)C(O)C(O)CO (stereo not drawn)	127 °C
CCCCCCO	-44.6 °C
COc1cc(C(=O)Nc2nnc(-c3ccc(Cl)cc3)o2)cc(OC)c1OC	261 to 263 °C
CC(C)(C)[Si](C)(C)N1C(=O)C[C@@H]1C(=O)O	137 to 141 °C
CC(=O)Nc1ccc(C=Cc2nc3cc([N+](=O)[O-])ccc3n2-c2ccc(C)cc2)cc1	249 to 250 °C
C#CCCCCCC	-60 °C
CC1(C)SC2C(N)C(=O)N2C1C(=O)O (stereo not drawn)	198 to 200 °C
CSCC(=O)O	14 °C
CSc1nc(N)c(C(C)=O)s1	159 to 160 °C
O=C(O)CCc1cc(I)c(Oc2ccc(O)c(I)c2)c(I)c1	200 °C
Clc1ccc2c(c1)c1cc(Cl)ccc1n2CC1CO1 (stereo not drawn)	143 to 144 °C
COC(=O)C1=C(C)NC(=O)C1CC(=O)O (stereo not drawn)	160 to 162 °C
c1ccc(CN2CCCNCCN(Cc3ccccc3)CCCNCC2)cc1	68 °C

Now from value to molecule:

melting point	SMILES
48 to 49 °C	ClCc1cc(-c2ccccc2)on1
27 to 28 °C	O=C=Nc1ccc(F)c([N+](=O)[O-])c1
190 °C	O=[N+]([O-])c1cccc(-c2nnc3n2NC(c2ccco2)S3)c1 (stereo not drawn)
25 °C	Fc1nc(F)c(Cl)c(F)c1Cl
255 °C	NSCc1cc2ccccc2oc1=O
209 °C	O=C(C1=NOC2C(=O)N(c3ccccc3[N+](=O)[O-])C(=O)C12)c1ccco1 (stereo not drawn)
39 to 40 °C	Nc1ccc(C(F)(F)F)nc1
94 °C	O=Cc1cnc(Br)s1
169 to 174 °C	Cc1ccc2occ(C=O)c(=O)c2c1
56 °C	Nc1c(Cl)cc(F)cc1Cl
196 to 198 °C	Nc1nnc(SCC(=O)Nc2ccc3c(c2)OCO3)s1
225 °C	O=[N+]([O-])c1ccc(C2Nn3c(nnc3-c3ccccc3)S2)cc1 (stereo not drawn)
47 °C	Nc1c(F)ccc(Cl)c1F
58 to 65 °C	N#CC1(c2ccc(F)cc2Cl)CCCCC1
119 to 124 °C	Oc1ccc(-n2cccc2)cc1
156 °C	Nc1ccc(CN2CCS(=O)(=O)CC2)cc1
96 °C	CC(=O)c1cccc(O)c1
120 °C	O=C1c2ccccc2C(=O)C1c1ccc(F)cc1
125 °C	Cc1ccc(C)n1-c1ccccc1C(=O)O
-9 °C	CCc1cccc(Cc2ccccc2)c1
202 to 203 °C	Nc1ncnc2c1ncn2CC(O)CO (stereo not drawn)

melting point	SMILES
77 °C	Oc1ccc(-c2ccccc2)cc1Cl
120 to 125 °C	O=S(=O)(NO)c1ccccc1
235 °C	Nc1cc(N)cc(C(=O)O)c1
221 °C	N#CC1=C(N)Oc2c(c(C(F)(F)F)nn2-c2ccccc2)C1c1ccc(Cl)cc1 (stereo not drawn)
226 to 228 °C	CCOc1ccc(-c2nnc3n2NC(C=Cc2ccccc2)S3)cc1 (stereo not drawn)
221 °C	O=C(C1=NOC2C(=O)N(c3cc(Cl)ccc3Cl)C(=O)C12)c1cccs1 (stereo not drawn)
120 to 121 °C	OCc1csc(-c2cccnc2)n1
146 to 147 °C	NC(Cc1ccc(F)cc1Cl)=NO
90.5 °C	c1ccc(Nc2ccccn2)nc1
224 to 225 °C	CCOC(=O)c1cnc(N)nc1C
258 to 260 °C	NNC(=O)C=Cc1ccc(C=CC(=O)NN)cc1
300 °C	Oc1ccnc(S)n1
165 to 167 °C	CC12CCC(/C(=C/Nc3ccccc3)C1=O)C2(C)C (stereo not drawn)
306 °C	O=C1c2ccccc2C(=O)c2cc(O)ccc21
113 °C	Nc1ccc(OCCCCCN2C(=O)c3ccccc3C2=O)cc1
120 to 130 °C	Cn1cnc2c(NCc3ccccc3)nc(NCCO)nc21
-27 °C	ClCCCc1ccccc1
250 °C	Nc1ccc(N=Nc2ccc(S(N)(=O)=O)cc2)c(N)c1
93 °C	Cc1nc(-c2cccc(C(=O)Cl)c2)no1
41 °C	COc1ccccc1N=Nc1ccccc1
13 °C	CC(CCC(=O)O)c1ccccc1 (stereo not drawn)

melting point	SMILES
104 to 106 °C	O=S(=O)(Cl)Cc1ccc(C(F)(F)F)cc1
261 °C	O=C1NCCN1c1ncc([N+](=O)[O-])s1
56 °C	c1ccc(-c2ccncn2)cc1
32 to 35 °C	CCOC(=O)c1ncoc1-c1ccccc1
109 °C	CCOC(=O)C1C(c2ccc(OC)cc2)C(C(=O)OCC)C(O)(C(F)(F)F)NC1(O)C(F)(F)F (stereo not drawn)
87 °C	O=[N+]([O-])c1c(Cl)ccc(O)c1Cl
90 to 92 °C	O=Cc1ccc2nsnc2c1
34 °C	O=[N+]([O-])c1ccc(OC(F)F)cc1
250 °C	O=C(O)c1ccc2nccn2c1
152 °C	O=C(C1=NOC2C(=O)N(c3ccc(Cl)cc3)C(=O)C12)c1ccc(Cl)cc1 (stereo not drawn)
252 °C	O=C(Nc1cc([N+](=O)[O-])ccc1C(=O)O)c1ccccc1
140 °C	CC(C)(O)CCSc1ccc(S(N)(=O)=O)cc1
127 to 129 °C	Cc1onc(-c2c(F)cccc2Cl)c1C(N)=O
177 to 178 °C	Cc1c(CC(=O)O)sc2ccc(Cl)cc12
233 °C	Nc1ncnc(Nc2ccc(Cl)cc2)n1
300 °C	O=C(O)C=Cc1ccc(C=CC(=O)O)cc1
98 to 100 °C	O=Cc1cccc(-c2ncccn2)c1
87 to 88 °C	COc1ccc(C(=O)Cc2ccccc2)cc1OC
333 °C	FC(F)(F)c1nn(CN2CCN(Cn3nc(C(F)(F)F)n(N=Cc4ccccc4)c3=S)CC2)c(=S)n1N=Cc1ccccc1
210 °C	CC(C)(C)N(NC(=O)c1ccccc1)C(=O)c1c(F)cccc1Cl
171 to 172 °C	CCOC(=O)c1nnn2c1nc(S)c1ccccc12
